In patent US20100048549A1, “Peptidomimetics selective for the somatostatin receptor subtypes 1 and/or 4” (priority 2005, published 2010) one finds Ki data, which are given here for 32 compounds.

Counter-ions that a name gives are not always drawn.

T1 sequence (P31391 whole entry): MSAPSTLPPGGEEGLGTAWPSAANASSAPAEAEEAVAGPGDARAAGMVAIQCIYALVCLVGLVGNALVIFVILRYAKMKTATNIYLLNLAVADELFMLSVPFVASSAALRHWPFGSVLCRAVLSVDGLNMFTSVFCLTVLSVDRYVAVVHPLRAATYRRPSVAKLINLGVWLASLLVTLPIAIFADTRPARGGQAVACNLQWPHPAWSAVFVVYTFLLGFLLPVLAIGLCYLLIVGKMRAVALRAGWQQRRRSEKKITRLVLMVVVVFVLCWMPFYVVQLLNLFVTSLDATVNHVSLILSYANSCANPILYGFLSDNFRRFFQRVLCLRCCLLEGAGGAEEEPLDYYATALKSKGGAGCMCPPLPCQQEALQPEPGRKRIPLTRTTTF

One experiment has as its target T1, human somatostatin receptor subtype sst4 (Homo sapiens, UniProt P31391).
T1 construct: expressed in transfected cells; host or cells: CHO cells (membranes)
Nature of the experiment: Competition binding with 125I-LTT-SRIF-28, CHO cell membranes, sst4. The following applies: bound only; read-out: Ki values for the sst4. As for the experimental part:
(§1) The affinity of the compounds of the invention for the five human somatostatin receptor subtypes (sst1, sst2, sst3, sst4, and sst5) was determined in competition binding assays with (^125I-Tyr)-[Leu^8, DTrp^22]-Somatostatin-28 (^125I-LTT-SRIF-28). The biological material for these experiments consisted of membranes from Chinese hamster ovary (CHO) cells stably transfected with one of the five human somatostatin receptor subtypes. Membranes (3-20 μg of total protein per sample) and trace amount of ^125I-LTT-SRIF-28 were incubated in 10 mM Hepes, 1 mM EDTA, 5 mM MgCl2, 5 mg/ml of BSA and 30 μg/ml bacitracin, pH 7.6, with six concentrations of the compounds. Each concentration was run in duplicate. Nonspecific binding was defined by 1 μM somatostatin-14 (SRIF-14) and corresponded to 5-25% of total binding. After 60 min at room temperature, incubations were terminated by rapid vacuum filtration through GF/B glass fiber filter mats (presoaked at 4° C. in 200 ml of 10 mM Hepes, 1 mM EDTA, 5 mM MgCl2, pH 7.6) and three 5 ml washes with ice-cold wash buffer (20 mM TRIS, 1 mM EDTA, 5 mM MgCl2, pH 7.4). The filters were then dried, impregnated with scintillate and their radioactivity was measured by scintillation counting. The analysis of the experiments was carried out by nonlinear least square curve fitting. Affinity constants (Ki) were calculated from the IC50 values according to the Cheng-Prusoff's equation (Cheng and Prusoff, 1973). Experiments were repeated a minimum of three times.
By Ki is commonly meant the dissociation constant of the complex between target and ligand, obtained from inhibition or displacement. For `Cc1ccc(S(=O)(=O)N[C@@H](CCCN)COCc2ccc(F)cc2)c2ccccc12` [compound 101, (S)-4-methylnaphthalene-1-sulfonic acid [4-amino-1-(4-fluorobenzyloxymethyl)butyl]amide], the Ki was < 300 nM. Consider `Cc1ccc(S(=O)(=O)N[C@H](CSCc2ccccc2)C(=O)NCCN)c2ccccc12` [compound 31, (S)-4-methylnaphthalene-1-sulfonic acid [1-(2-aminoethylcarbamoyl)-2-benzylsulfanylethyl]amide], for which the Ki is < 300 nM. On the same count and under the same terms, with `Cc1ccc(S(=O)(=O)N[C@@H](CCCN)COc2ccsc2)c2ccccc12` [compound 87, (S)-4-methylnaphthalene-1-sulfonic acid [4-amino-1-(thiophen-3-yloxymethyl)-butyl]-amide] the figure was < 300 nM. As for `Cc1ccc(S(=O)(=O)N[C@H](COCc2ccccc2)C(=O)NCCN)c2ccccc12` [compound 24, (R)-4-methylnaphthalene-1-sulfonic acid [1-(2-aminoethylcarbamoyl)-2-benzyloxyethyl]amide], the inhibition constant Ki was < 300 nM. The same measure, in the same setting: with `Cc1ccc(S(=O)(=O)N[C@@H](C(=O)NCCN)[C@H](C)OCc2ccccc2)c2ccccc12` [compound 70, (R)-4-methylnaphthalene-1-sulfonic acid [2-benzyloxy-2-(S)methyl-1-(aminoethylcarbamoyl)-ethyl]amide] the figure was < 300 nM; with `CCOC[C@H](CCCN)NS(=O)(=O)c1ccc(C)c2ccccc12` [compound 76, (S)-4-methylnaphthalene-1-sulfonic acid (4-amino-1-ethoxymethylbutyl)amide], < 300 nM. On to `Cc1ccc(S(=O)(=O)N[C@@H](CCNC(=N)N)COCc2ccccc2)c2ccccc12` [compound 4, (S)-4-methylnaphthalene-1-sulfonic acid (1-benzyloxymethyl-3-guanidinylpropyl)amide], for which the Ki was < 300 nM. Consider `Cc1ccc(S(=O)(=O)N[C@@H](CCN)COCc2ccccc2)c2ccccc12` [compound 3, (S)-4-methylnaphthalene-1-sulfonic acid (3-amino-1-benzyl-oxymethylpropyl)amide], for which the Ki is < 300 nM. For the compound `Cc1ccc(S(=O)(=O)N[C@@H](CNCCN(C)C)COCc2ccccc2)c2ccccc12` [compound 27, (S)-4-methylnaphthalene-1-sulfonic acid {2-benzyloxy-1-[(2-dimethylaminoethylamino)methyl]ethyl}amide], the Ki was < 300 nM. Turning to `Cc1ccc(S(=O)(=O)N[C@@H](CCCN)CN(C)Cc2ccccc2)c2ccccc12` [compound 85, (S)-4-methylnaphthalene-1-sulfonic acid {4-amino-1-[(benzylmethylamino)methyl]butyl}amide], the Ki was < 300 nM. With `Cc1ccc(S(=O)(=O)N[C@H](CNCc2ccccc2)Cc2c[nH]cn2)c2ccccc12` [compound 93, (S)-4-methylnaphthalene-1-sulfonic acid [1-(benzylaminomethyl)-2-(1H-imidazol-4-yl)ethyl]amide], the Ki was < 300 nM. For the compound `NCCC[C@@H](COCc1ccccc1)NS(=O)(=O)c1cccc2ccccc12` [compound 83, (S)-naphthalene-1-sulfonic acid (4-amino-1-benzyloxymethylbutyl)amide], the Ki was < 300 nM. With `Cc1ccc(S(=O)(=O)N[C@H](CCN)COCc2ccccc2)c2ccccc12` [compound 64, (R)-4-methylnaphthalene-1-sulfonic acid (3-amino-1-benzyloxymethylpropyl)amide], the Ki is < 300 nM. Turning to `Cc1ccc(S(=O)(=O)NC(CNCc2ccccc2)C2CCNCC2)c2ccccc12` (stereo not drawn) [compound 34, 4-methylnaphthalene-1-sulfonic acid (2-benzylamino-1-piperidin-4-ylethyl)amide], the Ki is < 300 nM. Regarding `Cc1ccc(S(=O)(=O)N[C@@H](CCCN)COc2ccccc2)c2ccccc12` [compound 13, (S)-4-methylnaphthalene-1-sulfonic acid (4-amino-1-phenoxymethylbutyl)amide], the Ki is < 300 nM. Turning to `Cc1ccc(S(=O)(=O)N[C@H](COc2ccccc2)Cc2c[nH]cn2)c2ccccc12` [compound 84, (S)-4-methylnaphthalene-1-sulfonic acid [2-(1H-imidazol-4-yl)-1-phenoxymethylethyl]amide], the Ki was < 300 nM.

Consider `Cc1ccc(S(=O)(=O)N[C@@H](CCCN)COC(C)c2ccccc2)c2ccccc12` (stereo partly drawn) [compound 88, (S)-4-methyl-naphthalene-1-sulfonic acid [4-amino-1-(1-phenyl-ethoxy methyl)-butyl]-amide formic acid salt], for which the Ki is < 300 nM.

With `Cc1ccc(S(=O)(=O)N[C@@H](CCCN)CNCc2ccccc2)c2ccccc12` [compound 35, (S)-4-methylnaphthalene-1-sulfonic acid [4-amino-1-(benzylaminomethyl)butyl]amide], the Ki is < 300 nM.

Regarding `Cc1ccc(S(=O)(=O)N[C@H](CNc2ccccc2)Cc2c[nH]cn2)c2ccccc12` [compound 94, (S)-4-methylnaphthalene-1-sulfonic acid [2-(1H-imidazol-4-yl)-1-phenylaminomethylethyl]amide], the Ki was < 300 nM. Turning to `Cc1ccc(S(=O)(=O)N[C@@H](CCCN)COCc2c(F)c(F)c(F)c(F)c2F)c2ccccc12` [compound 102, (S)-4-methylnaphthalene-1-sulfonic acid (4-amino-1-pentafluorophenylmethoxymethylbutyl)amide], the Ki was < 300 nM.

On to `Cc1ccc(S(=O)(=O)N[C@@H](CCCN)CSc2ccccc2)c2ccccc12` [compound 67, (S)-4-methylnaphthalene-1-sulfonic acid (4-amino-1-phenylsulfanylmethylbutyl)amide], for which the Ki is < 300 nM. Regarding `Cc1ccc(S(=O)(=O)N[C@@H](CCCN)COCC(C)C)c2ccccc12` [compound 80, (S)-4-methylnaphthalene-1-sulfonic acid (4-amino-1-isobutoxymethylbutyl)amide], the Ki is < 300 nM. In the case of `Cc1ccc(S(=O)(=O)N[C@@H](CCN)COc2ccccc2)c2ccccc12` [compound 100, (S)-4-Methylnaphthalene-1-sulfonic acid (3-amino-1-phenoxymethylpropyl)amide], the inhibitory constant (Ki) is < 300 nM. As for `Cc1ccc(S(=O)(=O)N[C@@H](CCCN)CSCc2ccccc2)c2ccccc12` [compound 1, (S)-4-methylnaphthalene-1-sulfonic acid (4-amino-1-benzylsulfanylmethylbutyl)amide], the Ki is < 300 nM. For the compound `NCCC[C@@H](COCc1ccccc1)NS(=O)(=O)c1ccc(F)c2ccccc12` [compound 78, (S)-4-fluoronaphthalene-1-sulfonic acid (4-amino-1-benzyloxymethylbutyl)amide], the Ki was < 300 nM.

For the compound `Cc1ccc(COC[C@H](CCCN)NS(=O)(=O)c2ccc(C)c3ccccc23)cc1` [compound 12, (S)-4-methylnaphthalene-1-sulfonic acid [4-amino-1-(4-methylbenzyloxymethyl)butyl]amide], the Ki is < 300 nM. Same read-out and setting: with `Cc1ccc(S(=O)(=O)NC(CCCN)CNC2CCCCC2)c2ccccc12` (stereo not drawn) [compound 77, 4-methylnaphthalene-1-sulfonic acid (4-amino-1-cyclohexylaminomethyl-butyl)-amide formic acid salt] the figure was < 300 nM.

A further experiment deals with T2, human somatostatin receptor subtype sst1 (Homo sapiens, UniProt P30872).
T2 construct: expressed in transfected cells; host or cells: CHO cells (membranes)
T2 sequence (P30872 whole entry): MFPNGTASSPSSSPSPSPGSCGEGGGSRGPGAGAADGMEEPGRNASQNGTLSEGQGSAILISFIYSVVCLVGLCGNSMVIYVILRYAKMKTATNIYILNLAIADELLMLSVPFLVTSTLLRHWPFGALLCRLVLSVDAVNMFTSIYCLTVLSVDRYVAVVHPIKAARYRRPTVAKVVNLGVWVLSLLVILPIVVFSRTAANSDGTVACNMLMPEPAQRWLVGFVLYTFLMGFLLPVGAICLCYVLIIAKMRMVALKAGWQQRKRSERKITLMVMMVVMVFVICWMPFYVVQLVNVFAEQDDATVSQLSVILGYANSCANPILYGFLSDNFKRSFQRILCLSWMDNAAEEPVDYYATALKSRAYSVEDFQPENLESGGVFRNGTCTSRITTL
Nature of the experiment: Competition binding with 125I-LTT-SRIF-28, CHO cell membranes, sst1. The following applies: bound only; read-out: Ki values for the sst1. As for the experimental part:
as §1
Take `Cc1ccc(S(=O)(=O)N[C@@H](CCCNC(C)C)CSCc2ccccc2)c2ccccc12` [compound 61, (S)-4-methylnaphthalene-1-sulfonic acid (1-benzylsulfanylmethyl-4-isopropylaminobutyl)amide]: the inhibition constant Ki is < 300 nM. Take `Cc1ccc(S(=O)(=O)N[C@@H](CCNC(=N)N)COCc2ccccc2)c2ccccc12` [compound 4, (S)-4-methylnaphthalene-1-sulfonic acid (1-benzyloxymethyl-3-guanidinylpropyl)amide]: the inhibition constant (Ki) was < 300 nM. Consider `Cc1ccc(S(=O)(=O)N[C@@H](CCCNC(C)C)CNC2CCCc3ccccc32)c2ccccc12` (stereo partly drawn) [compound 17, (S)-4-methylnaphthalene-1-sulfonic acid {4-isopropylamino-1-[(1,2,3,4-tetrahydronaphthalen-1-ylamino)methyl]butyl}amide], for which the inhibition constant (Ki) was < 300 nM. `Cc1ccc(S(=O)(=O)N[C@@H](CNCCN(C)C)COCc2ccccc2)c2ccccc12` [compound 27, (S)-4-methylnaphthalene-1-sulfonic acid {2-benzyloxy-1-[(2-dimethylaminoethylamino)methyl]ethyl}amide]: the Ki is < 300 nM. Same read-out and setting: with `CCC(CC)NCCC[C@@H](COc1ccccc1)NS(=O)(=O)c1ccc(C)c2ccccc12` [compound 14, (S)-4-methylnaphthalene-1-sulfonic acid [4-(1-ethylpropylamino)-1-phenoxymethylbutyl]amide] the figure was < 300 nM. Take `Cc1ccc(S(=O)(=O)N[C@H](CCN)COCc2ccccc2)c2ccccc12` [compound 64, (R)-4-methylnaphthalene-1-sulfonic acid (3-amino-1-benzyloxymethylpropyl)amide]: the inhibition constant (Ki) was < 300 nM. For `Cc1ccc(S(=O)(=O)N[C@@H](CCCN)COc2ccccc2)c2ccccc12` [compound 13, (S)-4-methylnaphthalene-1-sulfonic acid (4-amino-1-phenoxymethylbutyl)amide], the Ki is < 300 nM. Turning to `Cc1ccc(S(=O)(=O)N[C@@H](C(=O)NCCNC(C)C)[C@H](C)OCc2ccccc2)c2ccccc12` [compound 71, (R)-4-methylnaphthalene-1-sulfonic acid [2-benzyloxy-2-(S)methyl-1-(2-isopropylaminoethylcarbamoyl)-ethyl]amide], the Ki is < 300 nM. Take `Cc1ccc(S(=O)(=O)N[C@@H](CCCNC(C)C)COc2ccc3cnccc3c2)c2ccccc12` [compound 105, (S)-4-methylnaphthalene-1-sulfonic acid [4-isopropylamino-1-(isoquinolin-6-yloxymethyl)butyl]amide]: the inhibitory constant (Ki) is < 300 nM.
